Laboratory results as given in patent US20230293526A1, “METHOD FOR TREATING CANCER WITH A REVERSE TRANSCRIPTASE INHIBITOR” (PrimeFour Therapeutics, Inc., priority 2020, published 2023).

What was measured:
cancer cell lines = assay: Cancer cell proliferation activity of representative nucleosides, CellTiterGlo 72 h (Example 7, Tables 8 and 9); assay type: cell-based; settings: 72 h
Method in brief: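 Cancer cell lines seeded and incubated at 37° C overnight, then exposed to nucleosides (final DMSO 0.1%) for 72 h at 37° C with 5% or 10% CO2. Viability read by CellTiterGlo luminescence and normalized to 0.1% DMSO (100%) and 10 μM staurosporine (0%) controls.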

human LINE-1 = assay: Human LINE-1 (L1) retrotransposition dual-luciferase reporter assay in HeLa cells; assay type: cell-based; settings: Homo sapiens, HeLa, 72 h, read-out: Human LINE-1 IC50 (Human L1 activity inhibition)
Method in brief: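 HeLa cells transfected with dual-luciferase L1 plasmid pYX017 (100 ng/well), dosed immediately after with serially diluted compounds (0.2% DMSO final) in triplicate and incubated 72 h at 37 °C. Relative L1 activity = Firefly/Renilla ×10,000; IC50 from logistic non-linear regression.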

## CC[C@]1(CO)O[C@@H](n2ccc(N)nc2=O)C[C@@H]1O [compound 21, 4-amino-1-((2R,4S,5R)-5-ethyl-4-hydroxy-5-(hydroxymethyl)tetrahydrofuran-2-yl)pyrimidin-2(1H)-one]
Cancer cell lines; 72 h, 5637, bladder
  IC50: > 50 µM
Cancer cell lines; CLS439, bladder
  IC50: > 50 µM
Cancer cell lines; HS729, muscle
  IC50: > 50 µM
Cancer cell lines; J82, bladder
  IC50: > 50 µM
Cancer cell lines; JAR, placenta
  IC50: > 50 µM
Cancer cell lines; MT3, breast
  IC50: 3.29 µM
Cancer cell lines; PC3, prostate
  IC50: > 50 µM
Cancer cell lines; RD, muscle
  IC50: > 50 µM
Cancer cell lines; T24, bladder
  IC50: 3.46 µM
Cancer cell lines; Homo sapiens, 22Rv1, 72 h, 22RV1, prostate
  IC50: > 50 µM
Cancer cell lines; Homo sapiens, 786-0, 72 h, 786O, kidney
  IC50: > 50 µM
Cancer cell lines; Homo sapiens, A204, 72 h, A204, muscle
  IC50: 0.27 µM
Cancer cell lines; Homo sapiens, A549, 72 h, A549, lung
  IC50: 5.54 µM
Cancer cell lines; Homo sapiens, A673, 72 h, A673, bone
  IC50: > 50 µM
Cancer cell lines; Homo sapiens, A2780, 72 h, A2780, ovary
  IC50: > 50 µM
Cancer cell lines; Homo sapiens, A-375, 72 h, A375, skin
  IC50: > 50 µM
Cancer cell lines; Homo sapiens, A-431, 72 h, A431, skin
  IC50: > 50 µM
Cancer cell lines; Homo sapiens, ACHN, kidney
  IC50: 2.74 µM
Cancer cell lines; Homo sapiens, ASPC1, 72 h, ASPC1, pancreas
  IC50: > 50 µM
Cancer cell lines; Homo sapiens, BT-20, 72 h, BT20, breast
  IC50: > 50 µM
Cancer cell lines; Homo sapiens, BXPC-3, 72 h, BXPC3, pancreas
  IC50: > 50 µM
Cancer cell lines; Homo sapiens, C-33-A, C33A, endometrial
  IC50: 6.53 µM
Cancer cell lines; Homo sapiens, CAKI-1, 72 h, CAKI1, kidney
  IC50: 1.49 µM
Cancer cell lines; Homo sapiens, COLO 205, 72 h, COLO205, colon
  IC50: 3.44 µM
Cancer cell lines; Homo sapiens, COLO-678, 72 h, COLO678, colon
  IC50: > 50 µM
Cancer cell lines; Homo sapiens, Ca-Ski, CASKI, endometrial
  IC50: > 50 µM
Cancer cell lines; Homo sapiens, Caco-2, 72 h, CACO2, colon
  IC50: > 50 µM
Cancer cell lines; Homo sapiens, Calu-6, 72 h, CALU6, lung
  IC50: > 50 µM
Cancer cell lines; Homo sapiens, DLD-1, 72 h, DLD1, colon
  IC50: > 50 µM
Cancer cell lines; Homo sapiens, DU-145, 72 h, DU145, prostate
  IC50: > 50 µM
Cancer cell lines; Homo sapiens, EFO-21, 72 h, EFO21, ovary
  IC50: > 50 µM
Cancer cell lines; Homo sapiens, EJ-28, 72 h, EJ28, bladder
  IC50: > 50 µM
Cancer cell lines; Homo sapiens, Granta-519, 72 h, GRANTA-519, hematological
  IC50: 1.61 µM
Cancer cell lines; Homo sapiens, HCT-15, 72 h, HCT15, colon
  IC50: 9.11 µM
Cancer cell lines; Homo sapiens, HCT-116, 72 h, HCT116, colon
  IC50: 3.01 µM
Cancer cell lines; Homo sapiens, HEK293, 72 h, HEK293, kidney
  IC50: > 50 µM
Cancer cell lines; Homo sapiens, HL-60, 72 h, HL-60, hematological
  IC50: > 50 µM
Cancer cell lines; Homo sapiens, HT-29, 72 h, HT29, colon
  IC50: > 50 µM
Cancer cell lines; Homo sapiens, HT-1080, 72 h, HT1080, connective tissue
  IC50: > 50 µM
Cancer cell lines; Homo sapiens, HeLa, endometrial
  IC50: > 50 µM
Cancer cell lines; Homo sapiens, HepG2, 72 h, HEPG2, liver
  IC50: > 50 µM
Cancer cell lines; Homo sapiens, Hs-578T, HS578T, breast
  IC50: > 50 µM
Cancer cell lines; Homo sapiens, IGROV-1, 72 h, IGROV1, ovary
  IC50: > 50 µM
Cancer cell lines; Homo sapiens, IMR-90, 72 h, IMR90, lung
  IC50: > 50 µM
Cancer cell lines; Homo sapiens, JEG-3, 72 h, JEG3, placenta
  IC50: > 50 µM
Cancer cell lines; Homo sapiens, JIMT-1, 72 h, JIMT1, breast
  IC50: > 50 µM
Cancer cell lines; Homo sapiens, K562, 72 h, K-562, hematological
  IC50: > 50 µM
Cancer cell lines; Homo sapiens, Kasumi 1, 72 h, KASUMI-1, hematological
  IC50: > 50 µM
Cancer cell lines; Homo sapiens, L-363, 72 h, L-363, hematological
  IC50: > 50 µM
Cancer cell lines; Homo sapiens, LoVo, colon
  IC50: > 50 µM
Cancer cell lines; Homo sapiens, MCF7, 72 h, MCF7, breast
  IC50: > 50 µM
Cancer cell lines; Homo sapiens, MDA-MB-231, 72 h, MDAMB231, breast
  IC50: 2.85 µM
Cancer cell lines; Homo sapiens, MDA-MB-435, 72 h, MDAMB435, skin
  IC50: > 50 µM
Cancer cell lines; Homo sapiens, MDA-MB-436, 72 h, MDAMB436, breast
  IC50: > 50 µM
Cancer cell lines; Homo sapiens, MDA-MB-468, 72 h, MDAMB468, breast
  IC50: > 50 µM
Cancer cell lines; Homo sapiens, MG-63, 72 h, MG63, bone
  IC50: > 50 µM
Cancer cell lines; Homo sapiens, MHH-ES-1, 72 h, MHHES1, bone
  IC50: > 50 µM
Cancer cell lines; Homo sapiens, MIA PaCa-2, 72 h, MIAPACA2, pancreas
  IC50: > 50 µM
Cancer cell lines; Homo sapiens, MINO, hematological
  IC50: 1.3 µM
Cancer cell lines; Homo sapiens, MV4-11, 72 h, MV4-11, hematological
  IC50: 4.39 µM
Cancer cell lines; Homo sapiens, NCI-H23, 72 h, NCI-H23, lung
  IC50: > 50 µM
Cancer cell lines; Homo sapiens, NCI-H82, 72 h, NCIH82, lung
  IC50: > 50 µM
Cancer cell lines; Homo sapiens, NCI-H292, 72 h, NCIH292, lung
  IC50: 4.62 µM
Cancer cell lines; Homo sapiens, NCI-H460, 72 h, NCIH460, ung
  IC50: 4.01 µM
Cancer cell lines; Homo sapiens, OVCAR-3, 72 h, OVCAR3, ovary
  IC50: > 50 µM
Cancer cell lines; Homo sapiens, OVCAR-4, 72 h, OVCAR4, ovary
  IC50: > 50 µM
Cancer cell lines; Homo sapiens, PANC-1, 72 h, PANC1, pancreas
  IC50: > 50 µM
Cancer cell lines; Homo sapiens, PLC-PRF-5, 72 h, PLCPRF5, liver
  IC50: > 50 µM
Cancer cell lines; Homo sapiens, Panc1005, 72 h, PANC1005, pancreas
  IC50: > 50 µM
Cancer cell lines; Homo sapiens, Ramos, hematological
  IC50: 1.72 µM
Cancer cell lines; Homo sapiens, SAOS-2, 72 h, SAOS2, bone
  IC50: > 50 µM
Cancer cell lines; Homo sapiens, SF-268, 72 h, SF268, brain
  IC50: > 50 µM
Cancer cell lines; Homo sapiens, SF-295, 72 h, SF295, brain
  IC50: > 50 µM
Cancer cell lines; Homo sapiens, SK-BR-3, 72 h, SKBR3, breast
  IC50: > 50 µM
Cancer cell lines; Homo sapiens, SK-HEP1, 72 h, SKHEP1, liver
  IC50: > 50 µM
Cancer cell lines; Homo sapiens, SK-LMS-1, 72 h, SKLMS1, uterus
  IC50: > 50 µM
Cancer cell lines; Homo sapiens, SK-MEL-5, 72 h, SKMEL5, skin
  IC50: > 50 µM
Cancer cell lines; Homo sapiens, SK-MEL-28, 72 h, SKMEL28, skin
  IC50: > 50 µM
Cancer cell lines; Homo sapiens, SK-N-AS, SKNAS, brain
  IC50: > 50 µM
Cancer cell lines; Homo sapiens, SK-N-SH, SKNSH, brain
  IC50: > 50 µM
Cancer cell lines; Homo sapiens, SK-OV-3, 72 h, SKOV3, ovary
  IC50: > 50 µM
Cancer cell lines; Homo sapiens, SNB-75, 72 h, SNB75, brain
  IC50: > 50 µM
Cancer cell lines; Homo sapiens, SU-DHL10, 72 h, SU-DHL-10, hematological
  IC50: > 50 µM
Cancer cell lines; Homo sapiens, SU-DHL-6, 72 h, SU-DHL-6, hematological
  IC50: 3.8 µM
Cancer cell lines; Homo sapiens, SW-620, 72 h, SW620, colon
  IC50: > 50 µM
Cancer cell lines; Homo sapiens, TE-671, 72 h, TE671, muscle
  IC50: > 50 µM
Cancer cell lines; Homo sapiens, THP-1, 72 h, THP-1, hematological
  IC50: > 50 µM
Cancer cell lines; Homo sapiens, U2OS, bone
  IC50: > 50 µM
Cancer cell lines; Homo sapiens, U-87 MG, U87MG, brain
  IC50: > 50 µM
Cancer cell lines; Homo sapiens, UMUC3, 72 h, UMUC3, bladder
  IC50: > 50 µM
Cancer cell lines; Homo sapiens, UO-31, 72 h, UO31, kidney
  IC50: 9.45 µM
Cancer cell lines; Homo sapiens, WSU-NHL, hematological
  IC50: 2.82 µM
Cancer cell lines; NCI-H358M, NCIH358M, lung
  IC50: 1.49 µM
Cancer cell lines; PBMC, hematological
  IC50: 11.8 µM
Cancer cell lines; RD-ES, RDES, bone
  IC50: > 50 µM
Human LINE-1
  IC50: 0.043 µM
